# Measurements taken from patent US9789096B2, “Methods and compositions for selective and targeted cancer therapy” (Board of Regents of the University of Texas System, priority 2013, dated 2017).
# Columns and labels:
# SCD1 [1] = target: T1, SCD1 (Mus musculus, UniProt P13516); test: Tritium release assay of SCD1 activity, mouse liver; assay type: biochemical; details: liver expresses CYP4F11
# T1 construct: tissue derived from mouse liver and preputial gland was independently exposed; from tissue; host or cells: mouse liver
# T1 sequence (P13516 whole entry): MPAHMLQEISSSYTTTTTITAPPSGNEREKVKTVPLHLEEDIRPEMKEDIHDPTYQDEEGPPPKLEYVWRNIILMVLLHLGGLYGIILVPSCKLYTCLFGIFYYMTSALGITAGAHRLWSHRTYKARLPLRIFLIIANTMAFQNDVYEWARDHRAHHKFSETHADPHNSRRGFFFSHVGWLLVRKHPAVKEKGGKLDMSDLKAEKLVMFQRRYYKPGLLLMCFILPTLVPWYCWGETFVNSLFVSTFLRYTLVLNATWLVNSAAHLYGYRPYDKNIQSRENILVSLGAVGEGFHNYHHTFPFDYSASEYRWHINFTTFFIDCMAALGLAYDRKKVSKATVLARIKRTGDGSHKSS
# Description: (§1) FIGS. 10A-10F. Sensitive cells express high levels of CYP4 family members. FIG. 10A. relative expression levels of mRNA for a panel of cytochrome P450 enzymes from the cancer cell line encyclopedia (CCLE, http://www.broadinstitute.org/ccle) showing CYP4F11 in particular is highly expressed in 4 NSCLC lines that are sensitive to SCD1 inhibition. FIG. 10B. Western blot showing that CYP4F11 protein is expressed in all sensitive cell lines but not in the majority of insensitive cell lines. FIG. 10C. […] FIG. 10D. Cells were incubated with either a methoxy-containing oxalamide, which represents the pro-drug form, or the hydroxy containing oxalamide, which represents the active form of the drug. […] FIG. 10E. 293t cells were transfected with mammalian expression plasmids containing SCD1 or CYP4F11 as indicated. Cells were treated with either SW208108 or its demethylated congener, SW211666, and conjugated with a fluorescent dye as described in FIG. 7. Cells containing CYP4F11 form covalent adducts with both the pro-drug (methoxy) and drug form (demethylated, i.e. OH). […] FIG. 10F. Shown are the results of a tritium release assay in which tritiated water is produced from tritiated stearoyl CoA by the action of SCD1. […] By contrast, SW211666 but not SW208108 inhibits SCD1 in mouse preputial gland, which lacks CYP4F11 (bottom). […]
# HMOX2 [2] = target: T2, HMOX2 (Homo sapiens, UniProt P30519); test: Immunoprecipitation of SW208108-bound protein with anti-HMOX2; assay type: binding
# T2 construct: endogenous in cells; host or cells: H2122 cells (homogenate / lysate)
# T2 sequence (P30519 whole entry): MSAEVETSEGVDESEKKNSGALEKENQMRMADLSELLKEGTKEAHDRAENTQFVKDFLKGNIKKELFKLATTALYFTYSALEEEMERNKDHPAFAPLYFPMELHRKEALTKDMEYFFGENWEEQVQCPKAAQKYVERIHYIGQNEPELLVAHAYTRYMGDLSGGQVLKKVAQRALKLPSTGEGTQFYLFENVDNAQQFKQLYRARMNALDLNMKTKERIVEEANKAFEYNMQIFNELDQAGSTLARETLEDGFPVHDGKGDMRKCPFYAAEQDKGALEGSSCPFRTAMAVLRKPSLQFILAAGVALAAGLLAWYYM
# Description: FIG. 7M. HMOX2 binds to SW208108 and is partially competed by an active competitor. Lysates collected from H2122 cells treated with SW208108 with or without competitor were immunoprecipitated with either IgG or anti-HMOX2 and then “clicked” to a dye-azide (as described in FIG. 7A). HMOX2 binds to SW208108 and binding is partially diminished in the presence of a competitor.
# (§2) However, when HO2 was knocked out from H2122 cells using Crisper technology (FIG. 7O), no toxicity was observed, and SW208108 and related compounds retained toxicity towards H2122 cells (FIG. 7P). We conclude that HO2 is not required for cell survival or for the cytotoxicity of the selective toxins.
# H2122 cells = test: Lipid ratios in H2122 cells by MS/MS; assay type: cell-based, human; details: 100 nM, within 6 hours
# Experimental: FIG. 8A. Covalent binders of SCD1 affect lipid ratios in human cancer cells. H2122 cells were treated with 100 nM SW208108 for the indicated times before a lipid extraction was performed. Lipid extracts were analyzed by MS/MS in order to determine the fractional content of 8 different lipid species including triacylglycerols (TAG) and diacylglycerols (DAG). In MS/1, the total number of carbons and number of unsaturated bonds was determined for all of the fatty acid chains. For example, TAG (50:3) is a triacylglycerol with 3 fatty acid chains that all together have 50 carbons and 3 unsaturated bonds. The mass for one of these fatty acids was determined in MS/2 and is listed as noted by its carbon length and unsaturated bond number using the same notation.
# SCD1 catalyzes the dehydrogenation of saturated fatty acid-CoA's to form unsaturated fatty acid-CoA's. For example, the enzyme gets its name from the conversion of stearic acid-CoA to oleic acid-CoA. For this reason, inhibition SCD1 was expected to alter the ratio of saturated:unsaturated fatty acids.
# H2122 = test: Cell viability dose-response, H2122; assay type: cell-based, human; details: text b138; read-out: IC50 towards H2122 cells
# Outline: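 Viability read as total ATP (Cell Titer Glo) following 4 days' compound exposure, with IC50 derived from dose-response curves. Duplicate 12-point series, top concentration 50 micromolar with 3-fold steps, on cells seeded at 15% confluence in RPMI-1640, 5% FBS, 2 mM L-glutamine.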
# SCD1 [3] = target: T1, SCD1; test: Tritium release assay of SCD1 activity, mouse preputial gland; assay type: biochemical; details: preputial gland lacks CYP4F11
# Description: as §1
# HMOX2 [4] = target: T2, HMOX2; test: HMOX2 activity in H2122 cell homogenate (bilirubin production); assay type: biochemical
# Experimental: FIG. 7N. Oxalamide inhibits the activity of HMOX2 in vitro. H2122 cell homogenate was incubated with varying concentrations of SW208108 in the presence of excess NADPH, NADPH cytochrome reductase, and biliverdin reductase. The samples were extracted with chloroform and absorbance was measured at 450 nm refecting bilirubin production.
# as §2
structure (smiles),measurement,setting,value
C#CCOc1ccc(C(=O)c2ccc(NC(=O)C(=O)NCCc3ccc(OC)cc3)cc2)cc1 [SW208108],inhibition of SCD1 activity in mouse liver tissue,SCD1 [1],only inhibited SCD1 activity in the liver
same,covalent binding to HO2 (HMOX2),HMOX2 [2],covalently bound
same,saturated vs unsaturated fatty acids in neutral lipids,H2122 cells,increased the percentage of neutral lipids containing saturated fatty acids
same,IC50,H2122,30 nM
same,inhibition of SCD1 activity in mouse preputial gland tissue,SCD1 [3],not in the preputial gland
same,activity of HMOX2 in vitro,HMOX2 [4],inhibits
